Experimental data as given in ChEMBL document CHEMBL5634204, “Goondansamycins A-H: Benzenoid Ansamycins from an Australian Volcanic Crater Soil-Derived Actinomadura sp. S4S-00069B08” (J Nat Prod, 2024).

Assays:
Staphylococcus aureus = test: Antibacterial activity against Staphylococcus aureus ATCC 25923 assessed as inhibition of bacterial growth incubated for 24 hrs by spectrophotometry; format: functional, organism-based; conditions: ATCC 25923, 24 h
SW-620 = test: Cytotoxicity against human SW620 cells assessed as inhibition of cell growth incubated for 48 hrs by MTT assay; format: functional, cell-based; conditions: SW-620, 48 h
Escherichia coli = test: Antibacterial activity against Escherichia coli ATCC 11775 assessed as inhibition of bacterial growth incubated for 24 hrs by spectrophotometry; format: functional, organism-based; conditions: ATCC 11775, 24 h
Candida albicans = test: Antifungal activity against Candida albicans ATCC 10231 assessed as inhibition of fungal growth incubated for 48 hrs by spectrophotometry; format: functional, organism-based; conditions: ATCC 10231, 48 h
NCI-H460 = test: Cytotoxicity against human NCI-H460 cells assessed as inhibition of cell growth incubated for 48 hrs by MTT assay; format: functional, cell-based; conditions: NCI-H460, 48 h

Measured: IC50

C/C1=C\[C@@H](C)[C@H](O)c2cc(O)cc3c2O[C@](C)(C(=O)N3)C(=O)[C@@H](C)C1
> 30 µM: all assays above

C/C1=C\C(C)C(O)c2cc(O)cc3c2OC(CO)(C(=O)N3)C(=O)C(C)C1 (stereo not given)
> 30 µM: all assays above

CCC(=O)[C@@H](C)C/C(C)=C/[C@@H](C)[C@H](O[C@@H]1CC[C@@H](O)[C@@H](C)O1)C1=CC(=O)C=C(N)C1=O
> 30 µM: all assays above

C/C1=C\[C@@H](C)[C@H](O)c2cc(O)cc3c2O[C@](C)(C(=O)N3)C(=O)[C@H](C)C1
> 30 µM: all assays above

C/C1=C\[C@@H](C)[C@H](O[C@@H]2CC[C@@H](O)[C@@H](C)O2)C2=CC(=O)C(N)=C(NC(=O)C(C)C(=O)[C@@H](C)C1)C2=O (stereo not given in full)
> 30 µM: all assays above

C/C1=C\[C@@H](C)[C@H](O)c2cc(O)cc(c2O)NC(=O)[C@@H](C)C(=O)[C@@H](C)C1
> 30 µM: all assays above

C/C1=C\[C@@H](C)[C@H](O[C@@H]2CC[C@@H](O)[C@@H](C)O2)c2cc(O)cc3c2O[C@](C)(C(=O)N3)C(=O)[C@@H](C)C1
> 30 µM: all assays above

C/C1=C\C(C)C(O)c2cc(O)cc3c2OC(C)(C(=O)N3)C(=O)C(C)C1 (stereo not given)
> 30 µM: all assays above

C/C1=C\[C@@H](C)[C@H](O[C@@H]2CC[C@H](O)[C@@H](C)O2)c2cc(O)cc3c2O[C@](C)(C(=O)N3)C(=O)[C@@H](C)C1
> 30 µM: all assays above

C/C1=C\[C@@H](C)[C@H](O)C2=CC(=O)C(N)=C(NC(=O)C(C)C(=O)[C@@H](C)C1)C2=O (stereo not given in full)
> 30 µM: all assays above
